{"source": "patent US10947241B2", "about": "“Phenyl phthalazine derivative, method for the preparation thereof, and pharmaceutical composition comprising the same” (Seoul National University Hospital, priority 2016, dated 2021)", "target": "hResistin (Homo sapiens (Human), UniProt Q9HD89)", "sequence (Q9HD89 19-108)": "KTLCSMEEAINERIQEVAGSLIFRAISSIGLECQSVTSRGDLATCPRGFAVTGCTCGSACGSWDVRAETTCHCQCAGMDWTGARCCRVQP", "assay": "Evaluation of the ability to inhibit TNF-α secretion by hResistin (THP-1 cells, ELISA)", "type": "cell-based", "details": "THP-1 human monocyte cell line, human recombinant Resistin", "protocol": "Experimental Example: Evaluation of the Ability to Inhibit TNF-α Secretion by hResistin\nUsing THP-1 (human monocyte) cell line and ELISA system, the abilities to inhibit TNF-α secretion by hResistin (IC50) were evaluated for the compounds prepared in the above examples. The compounds target hResistin, and the abilities of the compounds to inhibit TNF-α secretion by human recombinant Resistin in human monocyte (THP-1) were evaluated. The abilities to inhibit TNF-α secretion were assessed by ELISA quantifying the amount of antibody with the enzyme as a marker using an antigen-antibody reaction.\nSpecifically, the cultured cells were spun down at 1,500 rpm for 2 minutes, the supernatant was removed and then the cells were re-suspended in 10 mL of complete RPMI-1640 medium. After counting the number of cells using Luna™ Automated Cell Counter, cells were plated into 96-well assay plates at 50 μL per well. The cells cultured for 24 hours were treated with the test substances in accordance with the concentration for 1 hour, and then the supernatant was collected and subjected to ELISA assay. In the ELISA assay, the absorbance at 450 nm (OD450 nm) was measured using Flexstation 3. The ability of each test substance to inhibit TNF-α secretion (IC50) and its inhibition at a concentration of 5 uM are shown in Table 1 below.", "note": "Counter-ions that a name gives are not always drawn.", "data": [{"smiles": "Clc1ccc(-c2nnc(N3CC4CCNC4C3)c3ccccc23)cc1", "note": "(stereo not shown) [Example 88, 1-(4-chlorophenyl)-4-(hexahydropyrrolo[3,4-b]pyrrol-5(1H)-yl)phthalazine hydrochloride]", "values": [{"measurement": "IC50", "value": 900, "unit": "nM"}]}]}
